# Results published in patent US20070066686A1, “Infusion preparation containing (2r)-2-propyloctanoic acid as at the active ingredient” (ONO PHARMACEUTICAL CO., LTD., priority 2003, published 2007).
# Tested on: dog
# Experiment: single intravenous administration toxicity using a dog
# Assay type: in vivo
# Conditions: dose of 100 mg/kg
# Text: Toxicity of (2R)-2-propyloctanoic acid or a salt thereof is very low, and it is considered to be sufficiently safe for the use as a pharmaceutical drug.
compound,measurement,value
CCCCCC[C@@H](CCC)C(=O)O [(2R)-2-propyloctanoic acid],death after single intravenous administration,did not result in death
